In US20150045358A1, “PHARMACEUTICAL COMPOSITION FOR TREATING DISORDERS ASSOCIATED WITH INSULIN RESISTANCE” (National Central University, priority 2012, published 2015):
Entries after “also recorded” stand apart in the source; their conditions may differ.

Legend:
[1] = system: p38; test: p38 phosphorylation in differentiated 3T3-L1 adipocytes (Western blotting); assay type: cell-based
Description: (§1) Referring to FIGS. 2A, 2B, 2C, 2D, and 2E which are presented to detect the time-dependent effect of ET-1 on ET-1 signaling molecules, including ERK1 /2, JNKs, p38, […] or STAT3 proteins, the differentiated 3T3-L1 adipocytes are treated with or without 100 nM ET-1 at different time points, such as 2, 5, 15, 30, 120, and 240 minutes. After ET-1 incubation, the total protein amounts and the phosphorylation levels of each ET-1 signaling molecule are determined by Western blotting analysis.
Referring to FIGS. 3A, 3B, and 3C which are presented to further study the endothelin receptor-dependent of ET-1 on the phosphorylation of downstream signaling molecules and on resistin mRNA expression, the differentiated 3T3-L1 adipocytes are pretreated with or without either 1 μM BQ610 (an ETAR inhibitor) or 1 μM BQ788 (an endothelin type B receptor (ETBR) inhibitor) for 1 hour, and then incubated with 100 nM ET-1. After different time points of ET-1 treatment, ET-1 signaling molecules, such as ERK1/2, JNKs, P38, AKT, and STAT3 proteins, and resistin mRNA levels are determined by Western blotting analysis and PCR analysis, respectively. FIG. 3A, 3B, and 3C are presented with or without 5, 15, and 120 minutes of 100 nM ET-1 treatments, respectively. […]

[2] = system: STAT3; test: STAT3 phosphorylation in differentiated 3T3-L1 adipocytes (Western blotting); assay type: cell-based; settings: for basal level of phosphorylation of STAT3: inhibitor 1 μM alone, absence of ET-1
Description: as §1
(§2) Referring to FIGS. 3A, 3B, and 3C which are presented to further study the endothelin receptor-dependent of ET-1 on the phosphorylation of downstream signaling molecules and on resistin mRNA expression, the differentiated 3T3-L1 adipocytes are pretreated with or without either 1 μM BQ610 (an ETAR inhibitor) or 1 μM BQ788 (an endothelin type B receptor (ETBR) inhibitor) for 1 hour, and then incubated with 100 nM ET-1. After different time points of ET-1 treatment, ET-1 signaling molecules, such as ERK1/2, JNKs, P38, AKT, and STAT3 proteins, and resistin mRNA levels are determined by Western blotting analysis and PCR analysis, respectively. FIG. 3A, 3B, and 3C are presented with or without 5, 15, and 120 minutes of 100 nM ET-1 treatments, respectively.
(§3) Referring to FIGS. 4A, 4B, 4C, 4D, and 4E which are presented to study the effect of the inhibitors of ET-1 signaling molecules, the differentiated 3T3-L1 adipocytes are pretreated with or without the specific inhibitors of ERK1/2, JNK, AKT, STAT3, or p38 for 30 minutes and then incubated with 100 nM ET-1. These inhibitors comprise 1,4-diamino-2,3-dicyano-1,4-bis [2-aminophenylthio]butadiene (U0126, 25 μM; an ERK1/2 inhibitor), 2-(2-Amino-3-methoxyphenyl)-4H-1-benzopyran-4-one (PD98059, 50 μM; an ERK1/2 inhibitor), anthrapyrazolone (SP600125, 20 μM; a JNK inhibitor), SB203580 (20 μM; a p38 inhibitor), 2-(4-morpholinyl)-8-phenyl-4H-1-benzopyran-4-one (LY294002, 50 μM; a PI3K/AKT inhibitor), wortmannin (0.2 μM; a PI3K/AKT inhibitor), and tyrphostin (AG490, 20 μM; a STAT3 inhibitor). After 5, 15 and 120 minutes of 100-nM ET-1 treatment, the total amounts and the phosphorylation level of the above ET-1 signaling molecules corresponding to the ET-1 stimulated increases in resistin mRNA level are determined by Western blotting analysis.

[3] = system: resistin protein; test: resistin protein level in differentiated 3T3-L1 adipocytes (Western blotting); assay type: cell-based
Description: Referring to FIG. 4F which detects the concentration-dependent effect of ET-1 on resistin protein level, the differentiated 3T3-L1 adipocytes are treated with different concentrations of ET-1, such as 0, 10, 50, and 100 nM. After ET-1 incubation, resistin protein levels are determined by Western blotting analysis. Levels of resistin protein are increased by about 120%, 130%, and 140% after 10, 50 and 100 nM ET-1 are respectively added.

[4] = system: resistin mRNA; test: resistin mRNA level in differentiated 3T3-L1 adipocytes (RT-PCR, real time-PCR); assay type: cell-based, mouse; settings: for resistin mRNA level: pretreatment with inhibitor 1 μM alone, no ET-1
Description: Referring to FIGS. 1A and 1B which are presented to detect the time-dependent effect of ET-1 on resistin mRNA level, the differentiated 3T3-L1 adipocytes are treated with 100 nM ET-1 at different time periods, including 0, 0.25, 0.5, 1, 2, 4, 6, 8, 12, and 24 hours, After the treatment, resistin mRNA is analyzed by the respective method of reverse transcription-polymerase chain reaction (RT-PCR) (FIG. 1A) and real time-PCR. The forward and reverse primers are [NT] and [NT] for mouse GAP DH and [NT] and [NT] for mouse resistin, respectively. […] The duration of ET-1 incubation that causes the maximum effect on resistin mRNA levels is 2 hours. Referring to FIGS. 1C and 1D which are presented to detect the concentration-dependent effect of ET-1 on resistin mRNA level, the differentiated 3T3-L1 adipocytes are treated with different concentrations of ET-1, such as 0, 10, 50, and 100 nM. After 2 hours of ET-1 incubation, resistin mRNA levels are determined by RT-PCR (FIG. 1C) and by real time-PCR (FIG. 1D). Levels of resistin mRNA are increased by 50%, 100%, and 200% after 10, 50 and 100 nM ET-1 are respectively added. According to the results, 100 nM ET-1 is used in the following embodiments of the present invention for treatment of the differentiated 3T3-L1 adipocytes. […] After different time points of ET-1 treatment, ET-1 signaling molecules, such as ERK1/2, JNKs, P38, AKT, and STAT3 proteins, and resistin mRNA levels are determined by Western blotting analysis and PCR analysis, respectively.

[5] = system: ERK1/2; test: ERK1/2 phosphorylation in differentiated 3T3-L1 adipocytes (Western blotting); assay type: cell-based; settings: for basal level of phosphorylation of ERK1/2: inhibitor 1 μM alone, absence of ET-1
Description: as §1, §2, §3

[6] = system: JNKs; test: JNKs phosphorylation in differentiated 3T3-L1 adipocytes (Western blotting); assay type: cell-based; settings: for basal level of phosphorylation of JNKs: inhibitor 1 μM alone, absence of ET-1; for ET-1-stimulated phosphorylation of JNKs: inhibitor 1 μM pretreated 1 hour, then 100 nM ET-1 for 5 or 15 minutes
Description: as §1, §2, §3

[7] = system: AKT; test: AKT phosphorylation in differentiated 3T3-L1 adipocytes (Western blotting); assay type: cell-based; settings: for basal level of phosphorylation of AKT: inhibitor 1 μM alone, absence of ET-1
Description: as §1, §2, §3

[8] = inhibitor 20 μM pretreated 30 minutes, then 100 nM ET-1
[9] = 100 nM ET-1, time points 2-240 minutes
[10] = 100 nM ET-1 alone for 5 minutes or 15 minutes
[11] = inhibitor 1 μM pretreated 1 hour, then 100 nM ET-1 for 5 or 15 minutes
[12] = inhibitor 1 μM, in the presence and absence of ET-1
[13] = inhibitor 50 μM pretreated 30 minutes, then 100 nM ET-1

## C[S+]([O-])c1ccc(-c2nc(-c3ccncc3)c(-c3ccc(F)cc3)[nH]2)cc1 (stereo not shown) [SB203580]
[1]; [8]
  phosphorylation of p38: not stimulated by ET-1 or inhibited

## tyrphostin [AG490]
[2]; [8]
  ET-1-stimulated phosphorylation of STAT3: inhibited

## ET-1: endothelin-1, one of the strongest vasoconstrictors; stimulus used on 3T3-L1 adipocytes
[3]; 10 nM ET-1
  increase of resistin protein levels: about 120%
[3]; 50 nM ET-1
  increase of resistin protein levels: ~130%
[3]; 100 nM ET-1
  increase of resistin protein levels: ~140%
[4]; 10 nM ET-1, 2 hours
  increase of resistin mRNA levels: 50%
[4]; 50 nM ET-1, 2 hours
  increase of resistin mRNA levels: 100%
[4]; 100 nM ET-1, 0.25-12 hours after treatment, differentiated 3T3-L1 adipocytes
  increase of resistin mRNA levels: 100-250%
[4]; 100 nM ET-1, 2 hours
  increase of resistin mRNA levels: 200%
[4]; 100 nM ET-1, time course 0-24 hours
  duration of ET-1 incubation that causes the maximum effect on resistin mRNA levels: 2 h
[5]; [9]
  time of maximum phosphorylation of ERK1/2: 2 min
[5]; [10]
  phosphorylation of ERK1/2: increased phosphorylation
[1]; 100 nM ET-1
  phosphorylation of p38 on ET-1 stimulation: not altered; also recorded: not stimulated
[2]; [10]
  phosphorylation of STAT3: increased phosphorylation
[6]; [9]
  time of maximum phosphorylation of JNKs: 15 min
[6]; [10]
  phosphorylation of JNKs: increased phosphorylation
[7]; [10]
  phosphorylation of AKT: increased phosphorylation

## CC(C)C[C@H](NC(=O)N1CCCCCC1)C(=O)N[C@H](Cc1cn(C=O)c2ccccc12)C(=O)N[C@H](Cc1c[nH]c2ccccc12)C(=O)O [BQ610]
[4]; inhibitor 1 μM pretreated 1 hour, then 100 nM ET-1 for 120 minutes
  ET-1-stimulated resistin mRNA expression: suppresses
[4]
  resistin mRNA level: does not alter
[5]
  basal level of phosphorylation of ERK1/2: does not alter
[5]; [11]
  ET-1-stimulated phosphorylation of ERK1/2: inhibits
[2]
  basal level of phosphorylation of STAT3: does not alter
[2]; [11]
  ET-1-stimulated phosphorylation of STAT3: inhibits
[6]
  basal level of phosphorylation of JNKs: does not alter
  ET-1-stimulated phosphorylation of JNKs: inhibits
[7]
  basal level of phosphorylation of AKT: does not alter
[7]; [11]
  ET-1-stimulated phosphorylation of AKT: inhibits

## N#CC(=C(N)Sc1ccccc1N)C(C#N)=C(N)Sc1ccccc1N [U0126, 1,4-diamino-2,3-dicyano-1,4-bis [2-aminophenylthio]butadiene]
[5]; inhibitor 25 μM pretreated 30 minutes, then 100 nM ET-1
  ET-1-stimulated phosphorylation of ERK1/2: inhibited

## CCCC[C@@H](NC(=O)[C@@H](Cc1cn(C(=O)OC)c2ccccc12)NC(=O)[C@H](CC(C)(C)C)NC(=O)N1[C@H](C)CCC[C@@H]1C)C(=O)O [BQ788]
[4]
  resistin mRNA level: does not alter
[5]
  basal level of phosphorylation of ERK1/2: does not alter
[5]; [11]
  ET-1-stimulated phosphorylation of ERK1/2: does not alter
[5]; [12]
  total amounts of ERK1/2 protein: does not alter
[2]
  basal level of phosphorylation of STAT3: does not alter
[2]; [11]
  ET-1-stimulated phosphorylation of STAT3: does not alter
[2]; [12]
  total amounts of STAT3 protein: does not alter
[6]
  basal level of phosphorylation of JNKs: does not alter
  ET-1-stimulated phosphorylation of JNKs: does not alter
[6]; [12]
  total amounts of JNKs protein: does not alter
[7]
  basal level of phosphorylation of AKT: does not alter
[7]; [11]
  ET-1-stimulated phosphorylation of AKT: does not alter
[7]; [12]
  total amounts of AKT protein: does not alter

## COc1cccc(-c2cc(=O)c3ccccc3o2)c1N [PD98059, 2-(2-Amino-3-methoxyphenyl)-4H-1-benzopyran-4-one]
[5]; [13]
  ET-1-stimulated phosphorylation of ERK1/2: inhibited

## O=c1cc(N2CCOCC2)oc2c(-c3ccccc3)cccc12 [LY294002, 2-(4-morpholinyl)-8-phenyl-4H-1-benzopyran-4-one]
[7]; [13]
  ET-1-stimulated phosphorylation of AKT: inhibited
